Data from ChEMBL document CHEMBL1137818, “Structure and spasmolytic activity of eucalyptanoic acid from Eucalyptus camaldulensis var. obtusa and synthesis of its active derivative from oleanolic acid” (2002).

Columns and labels:
Jejunum [1] = assay: Spasmolytic activity in rabbit jejunum assessed as inhibition of K+-induced muscle contraction at 1 mg/mL after 30 mins; assay type: functional; settings: Oryctolagus cuniculus, 0.5 h
Jejunum [2] = assay: Spasmolytic activity in rabbit jejunum assessed as inhibition of calcium influx-mediated spontaneous muscle contraction at 1 mg/mL after 30 mins; assay type: functional; settings: Oryctolagus cuniculus, 0.5 h

| Structure (SMILES) | inhibition at 1000 µg/mL (Jejunum [1]) [%] | inhibition at 1000 µg/mL (Jejunum [2]) [%] |
| --- | --- | --- |
| COC(=O)[C@]12CCC(C)(C)C[C@@H]1C1=CC[C@@H]3[C@@]4(C)CC[C@H](OC(C)=O)C(C)(C)[C@@H]4CC[C@@]3(C)[C@]1(C)CC2 [METHYL ACETYL OLEANOLATE] | 35.5 | 67.7 |
| CC1(C)CC[C@]2(C(=O)O)CC[C@]3(C)C(=CC=C4[C@@]5(C)CC[C@H](O)C(C)(C)[C@@H]5CC[C@]43C)[C@H]2C1 [EUCALYPTANOIC ACID] | 31.1 | 58.2 |
| COC(=O)[C@]12CCC(C)(C)C[C@@H]1C1=CC=C3[C@@]4(C)CC[C@H](OC(C)=O)C(C)(C)[C@@H]4CC[C@@]3(C)[C@]1(C)CC2 [METHYLACETYLEUCALYPTANOATE] | 85.9 | 95.3 |
